Drawing on publication PMC12598805, “Crystal Structure–Activity Relationship of Some MeO Phenylacrylonitriles: Dual Antimicrobial–Cytotoxic Effects and in Silico Perspectives” (ChemistryOpen, 2025), this text covers zone of inhibition, MIC and MBC for three compounds.

Values after ≈ are worked out from the molar mass of the structure shown.

Assay type in all cases: cell-based
The subject of experiment [1] is Escherichia coli (ATCC 25922). Kind of experiment: Agar diffusion, zone of inhibition. Conditions: compounds at 50 mg mL^−1; for zone of inhibition: E.coli; for zone of inhibition at 50 mg/mL: Escherichia coli, ATCC25922, E.coli. The source says:
(§1) The antibacterial and antifungal activities were reported utilizing the method described by the Clinical & Laboratory Standards Institute.^[ [31], [32] ^] Agar diffusion method was used to determine the antimicrobial activity of the synthesized substances. The media used were mueller hinton agar (MHA) for bacteria and sabouraud‐dextrose agar (SDA) for fungi (Merck), as recommended by the manufacturer.
(§2) The synthesized compounds were initially investigated for their antimicrobial activity to elucidate the potential therapeutic utility against various pathogenic microbes using the agar plate diffusion method. The compounds were tested at a concentration of 50 mg mL^−1, and the antibiotics (ampicillin, kanamycin, and amphotericin B) were used at 5 mg mL^−1. […] K.pneumoniae and B.cereus were resistant to ampicillin, while they were susceptible to kanamycin with inhibition values of 30 and 26 mm, respectively. No antimicrobial activity of the compounds was observed against E.faecalis, S.typhimurium, K.pneumoniae, and for the fungus compared to Amphotericin B (20 mm). […]
(§3) Escherichia coli (ATCC 25922) […]
(§4) ATCC: American Type Culture Collection; NRRL: Northern Regional Research Laboratory The compounds 2(a-c) obtained could only be completely solubilised with dimethyl sulphoxide (DMSO) and the highest possible stock solutions of 50 mg.mL-1 were prepared. To these wells 50 μl of the previously prepared substances were transferred using sterile micropipette tips. For comparison, Ampicillin and kanamycin antibiotics for bacteria and Amphotericin B antibiotics for fungus were used as positive controls and DMSO was used as negative control. The prepared petri plates were kept at +4°C for about 1 hour and then the bacterial cultures were incubated at 37°C for 18-24 hours and mould cultures at 27-30°C for 48-72 hours. The zones formed were measured millimetrically with callipers. The experiments were performed with three repetitions. […]

For experiment [2], the system named is Bacillus subtilis (ATCC-19659). Kind of experiment: Agar diffusion, zone of inhibition. Conditions: B.subtilis, compounds at 50 mg mL^−1; for zone of inhibition at 50 mg/mL: Bacillus subtilis, ATCC19659.
From the text: as §1, §2, §4
Background: A growth-free zone around the sample is the usual read-out of agar diffusion tests.

Experiment [3] has as its system Enterococcus faecalis (ATCC 29212). Kind of experiment: Agar diffusion, zone of inhibition. Conditions: ATCC29212, E.faecalis, compounds at 50 mg mL^−1.
From the text: as §1, §2
Enterococcus faecalis (ATCC 29212) […]
as §4

Experiment [4] has as its system Klebsiella pneumoniae (ATCC-70063). Kind of experiment: Agar diffusion, zone of inhibition. Conditions: Klebsiella pneumoniae, ATCC70063; K.pneumoniae; compounds at 50 mg mL^−1.
From the text: as §1, §2
Klebsiella pneumoniae (ATCC-70063)
as §4

In experiment [5] the test system is Escherichia coli (ATCC 25922). Kind of experiment: Broth microdilution MIC. The note with it: ATCC25922, E.coli. On the procedure: as §3
(§5) ATCC: American Type Culture Collection; NRRL: Northern Regional Research Laboratory The compounds 2(a-c) obtained could only be completely solubilised with dimethyl sulphoxide (DMSO) and the highest possible stock solutions of 50 mg.mL-1 were prepared. […]
(§6) 3.1. Determination of Minimum Inhibition Concentration (MIC)
(§7) The minimum inhibition concentration (MIC) values of the compounds 2(a-c) against the test bacteria used in the study were determined according to the broth microdilution method.[1-2] MHB or SDB was used as test medium and bacterial and yeast suspensions were prepared at 0.5 Mc Farland concentration for each test bacteria. Double layer serial dilutions were prepared in "U" type 96-well microtiter plates. Medium+bacteria suspensions containing only medium in the first row, medium+bacteria in the second row and the final concentrations of the synthesised substances in the other rows between 25 mg.mL-1 and […] were added to the wells with a final volume of 200
(§8) μL. Ampicillin, Kanamycin and Amphotericin B standard antibiotics were used as positive controls.
(§9) Bacteria were incubated at 37±0.1 °C and C. albicans at 30±0.1 °C for 24-48 hours and the lowest concentration without growth was determined as MIC. Tests were performed in two parallel runs and mean values were given as a result. […]
A general note: Dilution methods test growth across graded concentrations, often in twofold steps.

Experiment [6] has as its system Pseudomonas aeruginosa (ATCC 27853). Kind of experiment: Broth microdilution MIC. The note with it: ATCC27853, P.aeruginosa. On the procedure: Pseudomonas aeruginosa (ATCC 27853) […]
as §5, §6, §7, §8, §9

The subject of experiment [7] is Bacillus subtilis (ATCC-19659). Kind of experiment: Broth microdilution MIC. The note with it: ATCC19659, B.subtilis, read-out: MIC. As to the method: as §5, §6, §7, §8, §9
Experiment [8] concerns Micrococcus luteus (NRRL-B-1018). Description: Broth microdilution MIC. Conditions: NRRLB1018, M.luteus. On the procedure:
(§10) Micrococcus luteus (NRRL-B-1018) […]
as §5, §6, §7, §8, §9

Experiment [9] has as its system Bacillus cereus (ATCC-10876). Description: Broth microdilution MIC. Conditions: Bacillus cereus, ATCC10876; B.cereus; read-out: MIC. On the procedure:
Bacillus cereus (ATCC-10876) […]
as §5, §6, §7, §8, §9

Experiment [10] relates to Staphylococcus aureus (ATCC 29213). Description: MBC by sub-culture from wells without growth. Conditions: ATCC29213, S.aureus. On the procedure:
Staphylococcus aureus (ATCC 29213) […]
as §5, §6, §7, §8
(§11) Bacteria were incubated at 37±0.1 °C and C. albicans at 30±0.1 °C for 24-48 hours and the lowest concentration without growth was determined as MIC. Tests were performed in two parallel runs and mean values were given as a result. In order to estimate “the minimum bactericidal/fungicidal concentrations (MBC/MFC) of the synthesised acrylonitrile derivatives “needed to indicate […] killing of the original inoculum,” 10 μl was taken from the wells with no observed growth and further sub-cultured onto their agar media (MHA and SDA for bacterial and fungal strains, respectively).[3] […]

The subject of experiment [11] is Micrococcus luteus (NRRL-B-1018). Description: MBC by sub-culture from wells without growth. Conditions: NRRLB1018, M.luteus. On the procedure: as §10, §5, §6, §7, §8, §11

`COc1ccc(C=C(C#N)c2ccccc2)cc1` [2a, 3‐(4‐methoxyphenyl)‐2‐phenylacrylonitrile]: the zone of inhibition in experiment [1] and in [2] was 13 ± 0.71 mm each time. Further, the zone of inhibition – broadly, the extent of the growth-free halo in a diffusion test – at 50 mg/mL is 13 mm in experiment [1], 13 mm in experiment [2], under 6 mm in experiment [3] and under 6 mm in [4]. Further, the MIC – broadly, the smallest concentration in the dilution series that meets the test's criterion for growth inhibition – stood at 2.5 mg/mL (≈ 10.6 mM) in experiment [5]; 5 mg/mL (≈ 21.3 mM) in experiment [6]; 25 mg/mL (≈ 106 mM) in experiment [7]; 6.25 mg/mL (≈ 26.6 mM) in [8]; 12.5 mg/mL (≈ 53.1 mM) in experiment [9]. Moreover, the minimum bactericidal concentration (MBC) (usually the smallest concentration meeting the test's criterion for killing) is 25 mg/mL (≈ 106 mM) in experiment [10] and 6.25 mg/mL (≈ 26.6 mM) in experiment [11].

Take `COc1ccc(/C=C(\C#N)c2ccc(F)cc2)cc1` [2b]: the zone of inhibition is reported as 12 ± 1.41 mm in [1] and 13 ± 2.12 mm in [2]. For the same compound, the zone of inhibition at 50 mg/mL in [1] was 12 mm; in experiment [2] it was 13 mm; in experiment [3], under 6 mm; in experiment [4], under 6 mm. Also, the MIC in [5] worked out at 25 mg/mL (≈ 98.7 mM); in experiment [6] it was 12.5 mg/mL (≈ 49.4 mM); in experiment [7], 25 mg/mL (≈ 98.7 mM); in experiment [8], 12.5 mg/mL (≈ 49.4 mM); in experiment [9], 12.5 mg/mL (≈ 49.4 mM). Further, the minimum bactericidal concentration (MBC) in experiment [10] was found to be 25 mg/mL (≈ 98.7 mM); in experiment [11] it was 12.5 mg/mL (≈ 49.4 mM).

Turning to `COc1ccc(/C=C(\C#N)c2cc(C(F)(F)F)cc(C(F)(F)F)c2)cc1` [2c], the zone of inhibition in experiment [1] was found to be 13 ± 0 mm; in experiment [2], 14 ± 0 mm. In addition, the zone of inhibition at 50 mg/mL was 13 mm in [1], 14 mm in experiment [2], under 6 mm in [3] and under 6 mm in experiment [4]. In addition, the minimal inhibitory concentration (MIC) in experiment [5] came out at 25 mg/mL (≈ 67.3 mM); in experiment [6], 12.5 mg/mL (≈ 33.7 mM); in experiment [7], 25 mg/mL (≈ 67.3 mM); in experiment [8] it was 2.5 mg/mL (≈ 6.73 mM); in [9], 12.5 mg/mL (≈ 33.7 mM). Moreover, the minimal bactericidal concentration (MBC) worked out at 12.5 mg/mL (≈ 33.7 mM) in experiment [10] and 5 mg/mL (≈ 13.5 mM) in experiment [11].
